# Test results published in ChEMBL document CHEMBL2380296, “Structure-based design and optimization of 2-aminothiazole-4-carboxamide as a new class of CHK1 inhibitors” (Bioorg Med Chem Lett, 2013).
# Experiments:
# [1] = molecular target: Protein kinase C alpha type (Homo sapiens, UniProt P17252); experiment: Inhibition of human PKCA
# [2] = molecular target: Casein kinase I isoform delta (Homo sapiens, UniProt P48730); experiment: Inhibition of human CSNK1D
# [3] = molecular target: Histamine H1 receptor (Homo sapiens) (UniProt P35367); experiment: Inhibition of histamine H1 receptor (unknown origin) at 1 ug/mL relative to control
# [4] = molecular target: Interleukin-1 receptor-associated kinase 4 (Homo sapiens, UniProt Q9NWZ3); experiment: Inhibition of human IRAK4
# [5] = molecular target: Tyrosine-protein kinase JAK2 (Homo sapiens, UniProt O60674); experiment: Inhibition of human JAK2
# [6] = molecular target: Vasopressin V2 receptor (Homo sapiens) (UniProt P30518); experiment: Inhibition of vasopressin V2 receptor (unknown origin) at 2 ug/mL relative to control
# Chain of Vasopressin V2 receptor (Homo sapiens) (P30518 whole entry): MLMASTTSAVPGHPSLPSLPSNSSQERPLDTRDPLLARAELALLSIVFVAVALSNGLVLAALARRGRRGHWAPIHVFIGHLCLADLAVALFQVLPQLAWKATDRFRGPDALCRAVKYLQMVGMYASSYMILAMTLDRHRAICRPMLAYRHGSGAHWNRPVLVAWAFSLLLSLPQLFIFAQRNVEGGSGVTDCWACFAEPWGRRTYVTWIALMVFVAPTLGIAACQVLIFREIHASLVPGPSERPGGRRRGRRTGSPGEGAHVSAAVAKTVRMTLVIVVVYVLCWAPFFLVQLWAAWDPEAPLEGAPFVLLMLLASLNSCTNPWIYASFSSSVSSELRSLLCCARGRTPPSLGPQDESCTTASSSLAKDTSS
# [7] = molecular target: Muscarinic acetylcholine receptor M4 (Homo sapiens) (UniProt P08173); experiment: Inhibition of muscarinic M4 receptor (unknown origin) at 2 ug/mL relative to control
# Chain of Muscarinic acetylcholine receptor M4 (Homo sapiens) (P08173 whole entry): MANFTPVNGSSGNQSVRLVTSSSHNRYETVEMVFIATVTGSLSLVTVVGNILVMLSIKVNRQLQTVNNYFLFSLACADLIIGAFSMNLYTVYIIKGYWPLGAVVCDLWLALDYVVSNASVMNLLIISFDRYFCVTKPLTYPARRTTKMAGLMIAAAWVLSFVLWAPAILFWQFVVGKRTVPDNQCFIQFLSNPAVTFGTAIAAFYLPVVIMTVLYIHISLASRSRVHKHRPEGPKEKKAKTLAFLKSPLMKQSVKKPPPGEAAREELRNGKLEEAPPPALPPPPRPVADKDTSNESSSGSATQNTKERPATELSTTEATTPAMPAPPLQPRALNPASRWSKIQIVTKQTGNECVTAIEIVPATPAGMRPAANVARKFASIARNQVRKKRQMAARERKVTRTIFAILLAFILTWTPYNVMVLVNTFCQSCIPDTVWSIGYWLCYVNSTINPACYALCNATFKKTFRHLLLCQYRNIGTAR
# [8] = molecular target: Vasopressin V1a receptor (Homo sapiens) (UniProt P37288); experiment: Inhibition of vasopressin V1a receptor (unknown origin) at 2 ug/mL relative to control
# [9] = molecular target: Serine/threonine-protein kinase Nek2 (Homo sapiens, UniProt P51955); experiment: Inhibition of human NEK2
# [10] = molecular target: Ribosomal protein S6 kinase alpha-3 (Homo sapiens, UniProt P51812); experiment: Inhibition of human RSK2
# Chain of Ribosomal protein S6 kinase alpha-3 (P51812 whole entry): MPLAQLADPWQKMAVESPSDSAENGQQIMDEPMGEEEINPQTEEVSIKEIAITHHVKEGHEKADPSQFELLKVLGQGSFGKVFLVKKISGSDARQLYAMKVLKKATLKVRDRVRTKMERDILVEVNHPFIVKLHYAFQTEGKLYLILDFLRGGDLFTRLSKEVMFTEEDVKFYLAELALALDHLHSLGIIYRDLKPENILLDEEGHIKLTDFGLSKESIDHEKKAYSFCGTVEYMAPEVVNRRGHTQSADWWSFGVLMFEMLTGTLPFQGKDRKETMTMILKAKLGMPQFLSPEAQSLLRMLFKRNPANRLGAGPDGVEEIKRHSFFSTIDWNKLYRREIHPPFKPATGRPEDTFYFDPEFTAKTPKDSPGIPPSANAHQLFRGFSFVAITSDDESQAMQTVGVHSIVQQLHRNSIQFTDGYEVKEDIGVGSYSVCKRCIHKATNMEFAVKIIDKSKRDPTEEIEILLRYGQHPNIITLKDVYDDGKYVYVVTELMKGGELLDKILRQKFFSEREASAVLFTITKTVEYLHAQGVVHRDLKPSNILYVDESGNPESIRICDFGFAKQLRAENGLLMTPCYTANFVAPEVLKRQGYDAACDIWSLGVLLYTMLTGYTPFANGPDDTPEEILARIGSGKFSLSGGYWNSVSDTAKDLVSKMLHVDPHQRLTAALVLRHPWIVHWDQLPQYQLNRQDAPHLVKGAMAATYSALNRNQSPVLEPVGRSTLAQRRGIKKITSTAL
# [11] = molecular target: C-X-C chemokine receptor type 3 (Homo sapiens) (UniProt P49682); experiment: Inhibition of CXCR3 (unknown origin) at 2 ug/mL relative to control
# hERG (KCNH2) = hERG (KCNH2) (Homo sapiens, UniProt Q12809); experiment: Inhibition of human ERG expressed in mouse L929 cells at 10 uM by IonWorks assay relative to control; format: cell-based; conditions: mouse L929 cells expressing human ERG
# Chain of hERG (KCNH2) (Q12809 whole entry): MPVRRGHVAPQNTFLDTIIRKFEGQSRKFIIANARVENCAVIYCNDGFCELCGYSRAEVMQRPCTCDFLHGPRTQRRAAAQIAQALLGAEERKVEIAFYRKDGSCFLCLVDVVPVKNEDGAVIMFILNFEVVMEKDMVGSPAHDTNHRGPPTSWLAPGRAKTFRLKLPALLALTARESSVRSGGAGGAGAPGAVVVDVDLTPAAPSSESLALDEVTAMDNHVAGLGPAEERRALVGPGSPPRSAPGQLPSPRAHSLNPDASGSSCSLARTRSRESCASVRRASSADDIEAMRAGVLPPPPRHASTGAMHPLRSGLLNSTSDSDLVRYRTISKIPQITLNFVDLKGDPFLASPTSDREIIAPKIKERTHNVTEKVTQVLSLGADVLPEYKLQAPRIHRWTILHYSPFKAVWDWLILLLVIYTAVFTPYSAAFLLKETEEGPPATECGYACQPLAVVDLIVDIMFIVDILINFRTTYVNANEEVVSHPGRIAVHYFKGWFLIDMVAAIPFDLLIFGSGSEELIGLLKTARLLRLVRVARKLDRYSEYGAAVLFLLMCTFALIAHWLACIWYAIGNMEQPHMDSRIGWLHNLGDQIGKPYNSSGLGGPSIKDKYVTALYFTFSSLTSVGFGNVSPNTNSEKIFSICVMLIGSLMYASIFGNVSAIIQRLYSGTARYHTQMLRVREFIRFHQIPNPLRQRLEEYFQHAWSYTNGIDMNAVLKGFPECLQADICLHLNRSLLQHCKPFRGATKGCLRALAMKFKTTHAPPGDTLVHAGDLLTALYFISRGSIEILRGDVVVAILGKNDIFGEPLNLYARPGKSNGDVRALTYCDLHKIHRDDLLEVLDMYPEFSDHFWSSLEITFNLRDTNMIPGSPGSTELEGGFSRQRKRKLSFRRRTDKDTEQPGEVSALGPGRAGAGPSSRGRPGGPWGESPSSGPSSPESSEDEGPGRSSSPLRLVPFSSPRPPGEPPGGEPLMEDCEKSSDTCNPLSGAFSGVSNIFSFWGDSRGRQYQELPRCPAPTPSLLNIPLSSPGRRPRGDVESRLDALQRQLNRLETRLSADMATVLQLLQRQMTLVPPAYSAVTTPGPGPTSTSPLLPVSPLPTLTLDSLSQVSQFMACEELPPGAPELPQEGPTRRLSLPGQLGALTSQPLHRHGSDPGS
# [12] = molecular target: Alpha-1A adrenergic receptor (Homo sapiens) (UniProt P35348); experiment: Inhibition of adrenergic alpha-1A receptor (unknown origin) at 1 ug/mL relative to control
# [13] = molecular target: Muscarinic acetylcholine receptor M1 (Homo sapiens) (UniProt P11229); experiment: Inhibition of muscarinic M1 receptor (unknown origin) at 2 ug/mL relative to control
# Chain of Muscarinic acetylcholine receptor M1 (Homo sapiens) (P11229 whole entry): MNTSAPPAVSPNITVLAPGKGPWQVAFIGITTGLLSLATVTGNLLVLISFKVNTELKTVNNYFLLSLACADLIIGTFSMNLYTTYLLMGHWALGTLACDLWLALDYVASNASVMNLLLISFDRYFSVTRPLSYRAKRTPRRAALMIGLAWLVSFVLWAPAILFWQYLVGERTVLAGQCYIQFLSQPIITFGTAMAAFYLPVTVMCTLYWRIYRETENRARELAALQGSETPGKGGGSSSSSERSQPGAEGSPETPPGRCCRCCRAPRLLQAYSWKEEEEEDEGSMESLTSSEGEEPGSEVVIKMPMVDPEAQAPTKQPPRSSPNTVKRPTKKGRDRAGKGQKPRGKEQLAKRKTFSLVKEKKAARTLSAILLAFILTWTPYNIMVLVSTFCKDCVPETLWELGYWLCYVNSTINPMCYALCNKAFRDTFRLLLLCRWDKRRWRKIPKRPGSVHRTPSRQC
# [14] = Tmax in rat at 10 mg/kg, po; format: ADME, organism-based; parameters: dose 10 mg/kg, route oral; conditions: in vivo
# [15] = molecular target: Testis-specific serine/threonine-protein kinase 2 (Homo sapiens, UniProt Q96PF2); experiment: Inhibition of human TSSK2
# Chain of Testis-specific serine/threonine-protein kinase 2 (Q96PF2 whole entry): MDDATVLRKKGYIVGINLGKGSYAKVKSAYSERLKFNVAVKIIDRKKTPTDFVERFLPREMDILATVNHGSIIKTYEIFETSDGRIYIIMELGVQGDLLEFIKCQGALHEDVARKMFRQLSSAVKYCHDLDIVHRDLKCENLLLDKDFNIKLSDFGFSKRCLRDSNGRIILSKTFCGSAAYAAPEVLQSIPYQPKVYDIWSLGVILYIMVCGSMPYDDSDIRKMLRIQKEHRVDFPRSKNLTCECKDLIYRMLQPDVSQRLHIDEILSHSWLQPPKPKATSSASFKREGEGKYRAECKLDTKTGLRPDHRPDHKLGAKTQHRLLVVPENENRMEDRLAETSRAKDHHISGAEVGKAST
# [16] = molecular target: Serine/threonine-protein kinase 3 (Homo sapiens, UniProt Q13188); experiment: Inhibition of human MST2
# Chain of Serine/threonine-protein kinase 3 (Q13188 whole entry): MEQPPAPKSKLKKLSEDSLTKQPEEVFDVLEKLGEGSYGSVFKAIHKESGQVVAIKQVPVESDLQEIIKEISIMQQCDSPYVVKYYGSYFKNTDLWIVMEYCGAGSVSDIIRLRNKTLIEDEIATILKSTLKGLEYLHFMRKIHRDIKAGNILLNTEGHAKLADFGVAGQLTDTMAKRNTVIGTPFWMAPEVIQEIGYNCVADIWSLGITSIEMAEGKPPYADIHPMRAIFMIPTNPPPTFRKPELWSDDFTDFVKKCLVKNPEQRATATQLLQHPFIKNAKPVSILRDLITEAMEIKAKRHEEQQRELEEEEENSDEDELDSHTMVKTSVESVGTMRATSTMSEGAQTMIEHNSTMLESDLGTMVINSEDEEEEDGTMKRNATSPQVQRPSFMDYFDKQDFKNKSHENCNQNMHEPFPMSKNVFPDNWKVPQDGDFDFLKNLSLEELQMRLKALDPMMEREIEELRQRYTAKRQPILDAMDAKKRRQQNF
structure (smiles),measurement,setting,value
COc1ccc2c(c1)C(=O)N(c1nc(C(=O)Nc3cnccc3N3CCNCC3)cs1)C2,IC50,[1],> 30 µM
same,IC50,[2],> 30 µM
same,inhibition,[3],21%
same,IC50,[4],1.1 µM
same,IC50,[5],21 µM
same,inhibition,[6],20.4%
same,inhibition,[7],14.1%
same,inhibition,[8],10.9%
same,IC50,[9],9.5 µM
same,IC50,[10],1.3 µM
same,inhibition,[11],8%
same,inhibition at 10 µM,hERG (KCNH2),42%
same,inhibition,[12],23.7%
same,inhibition,[13],43.8%
same,Tmax,[14],6 h
same,IC50,[15],8.9 µM
same,IC50,[16],2.1 µM
